Assay results taken from patent US20200239530A1, “COMPOUNDS AND METHODS OF MODULATING PROTEIN DEGRADATION” (Vividion Therapeutics, Inc., priority 2017, published 2020).

Legend:
[1] = molecular target: T1, SEC63 Translocation protein SEC63 homolog (Homo sapiens, UniProt Q9UGP8); assay: Cysteine liganding, probe competition; assay type: binding
T1 construct: Cells were resuspended in cold PBS on ice and sonicated with a probe sonicator to achieve lysis; endogenous in cells
T1 sequence (Q9UGP8 1-760): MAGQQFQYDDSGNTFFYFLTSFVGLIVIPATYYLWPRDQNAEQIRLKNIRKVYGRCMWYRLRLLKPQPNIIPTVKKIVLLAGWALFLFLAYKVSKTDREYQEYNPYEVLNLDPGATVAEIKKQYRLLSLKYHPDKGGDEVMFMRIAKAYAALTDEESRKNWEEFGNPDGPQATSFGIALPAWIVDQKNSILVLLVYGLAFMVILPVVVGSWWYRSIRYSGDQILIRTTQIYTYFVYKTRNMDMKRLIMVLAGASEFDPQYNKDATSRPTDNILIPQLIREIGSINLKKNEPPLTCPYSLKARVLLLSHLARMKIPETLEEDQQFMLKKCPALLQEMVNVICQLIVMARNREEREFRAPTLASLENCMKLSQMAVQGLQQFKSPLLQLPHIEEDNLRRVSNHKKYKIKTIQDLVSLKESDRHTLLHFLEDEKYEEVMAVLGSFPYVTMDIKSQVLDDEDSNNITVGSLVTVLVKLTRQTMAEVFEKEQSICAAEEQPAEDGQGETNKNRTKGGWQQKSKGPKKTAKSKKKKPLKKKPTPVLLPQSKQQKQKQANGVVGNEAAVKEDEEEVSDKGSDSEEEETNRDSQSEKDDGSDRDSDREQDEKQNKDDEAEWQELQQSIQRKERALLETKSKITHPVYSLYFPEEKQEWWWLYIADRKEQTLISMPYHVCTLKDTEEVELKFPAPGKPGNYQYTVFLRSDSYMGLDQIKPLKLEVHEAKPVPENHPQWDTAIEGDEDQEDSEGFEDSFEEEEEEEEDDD
How it was run: (§1)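 Read-out is loss of desthiobiotin iodoacetamide labelling at cysteines, measured on streptavidin-enriched tryptic peptides. Compound preincubation ran 1 hr at 25° C in PBS lysate holding 5 mg/ml proteome before the probe was added.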

[2] = molecular target: T2, SQSTM1 Sequestosome-1 (Homo sapiens, UniProt Q13501); assay: Cysteine liganding, probe competition; assay type: binding
T2 construct: Cells were resuspended in cold PBS on ice and sonicated with a probe sonicator to achieve lysis; endogenous in cells
How it was run: as §1

T2 sequence (Q13501 whole entry): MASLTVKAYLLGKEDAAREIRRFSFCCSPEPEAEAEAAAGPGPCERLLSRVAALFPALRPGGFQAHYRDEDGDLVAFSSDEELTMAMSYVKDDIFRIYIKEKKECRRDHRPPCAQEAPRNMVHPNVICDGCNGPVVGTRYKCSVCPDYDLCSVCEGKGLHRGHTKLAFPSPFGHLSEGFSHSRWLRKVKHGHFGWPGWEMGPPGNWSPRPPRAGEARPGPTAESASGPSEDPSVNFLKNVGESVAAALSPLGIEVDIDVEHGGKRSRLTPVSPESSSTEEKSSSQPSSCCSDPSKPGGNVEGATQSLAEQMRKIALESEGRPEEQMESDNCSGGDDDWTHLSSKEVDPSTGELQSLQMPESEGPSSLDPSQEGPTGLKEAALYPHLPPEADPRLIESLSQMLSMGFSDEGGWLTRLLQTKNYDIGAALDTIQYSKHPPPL

SMILES | Liganded ([1]; SEC63 Res# 295, uniprot Q9UGP8) | Liganded ([2]; SQSTM1 Res# 131, uniprot Q13501) | 100 Max ([1]; uniprot Q9UGP8) | 100 ave ([1]; uniprot Q9UGP8) | 500 Max ([1]; uniprot Q9UGP8) | 500 ave ([1]; uniprot Q9UGP8) | 100 Max ([2]; uniprot Q13501) | 100 ave ([2]; uniprot Q13501) | 500 Max ([2]; uniprot Q13501) | 500 ave ([2]; uniprot Q13501)
COc1ccc2c(c1)CCCN2C(=O)CCl [KB02] | YES | YES | – | – | – | – | – | – | – | –
O=C(CCl)Nc1cc(C(F)(F)F)cc(C(F)(F)F)c1 [KBO3] | – | – | 17.92 | 4.99 | 55.53 | 48.96 | 11.89 | −14.15 | 56.86 | 54.29
